# In PMC9226124, “Macrocycle-stabilization of its interaction with 14-3-3 increases plasma membrane localization and activity of CFTR” (Nature Communications, 2022):
# Values joined by “and” are separate entries in the source; they are usually repeats but may differ in a detail not shown here. Equal values may be shown once.
# How the values were obtained:
# [1] = molecular target: T1, 14-3-3β/CFTRpS753pS768 complex (Homo sapiens, UniProt P13569+P31946); test: Dose-response fluorescence polarization (FP) assay, compound titration; assay type: binding; details: for EC50: 14-3-3β 10 μM, labeled CFTRpS753pS768 100 nM, read-out: EC50; for FP signal: With 14-3-3
# T1 construct: His6 (cleaved yes); made in house; peptide synthetic
# T1 sequence (P31946 whole entry): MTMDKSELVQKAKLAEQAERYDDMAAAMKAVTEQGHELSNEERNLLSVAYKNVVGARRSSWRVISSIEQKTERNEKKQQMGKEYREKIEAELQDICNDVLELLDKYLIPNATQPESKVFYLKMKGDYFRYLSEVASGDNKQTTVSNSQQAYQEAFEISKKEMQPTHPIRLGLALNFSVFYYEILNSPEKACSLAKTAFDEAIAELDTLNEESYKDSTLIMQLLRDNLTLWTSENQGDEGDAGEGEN
# T1 sequence (P13569 747-774 limits assumed): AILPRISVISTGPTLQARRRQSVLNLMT
# Method: The 14-3-3β concentration used for the FP screening assay was 10 μM (dashed line). c HTS FP assay of the Cyclenium library. The samples contain 100 nM of FITC-CFTR_pS753pS768 peptide, 10 μM 14-3-3β, and 50 μM compound. FC-A (100 µM) was added as a positive control and DMSO as the negative control. Hit compounds are defined as a polarization increase which is higher than 20% of the response of FC-A. Red squares are compounds that appeared positive in the negative control without 14-3-3. […] Background polarization was subtracted from all values, n = 3 technical replicates. Compounds selected for further analysis are indicated with an asterisk. e Polarization in the absence of 14-3-3. […] Source data are provided as a Source Data file. […]
# The FITC-labeled peptides were dissolved in FP buffer (10 mM HEPES pH 7.4, 150 mM NaCl, 0.1% Tween20, 1 mg/mL BSA) to a final concentration of 100 nM or 10 nM. For the dose-response assays, a 14-3-3β concentration of 10 μM was used while titrating the compounds in a two-times dilution series and, for the other assays, a dilution series of 14-3-3β was made with constant concentration of compound. The dilution series were made in 384 Corning Black Round Bottom well plates and their polarization was measured with a Tecan Infinite F500 plate reader (ex. = 485 nm, em. = 535 nm). The method of fitting of the curves was: “log(agonist) vs. response – Variable slope (four parameters)” from GraphPad Prism. The equation is Y = Bottom + (Top-Bottom)/(1 + 10^((LogEC50-X)*HillSlope)).
# [2] = molecular target: T2, 3HA-tagged F508del-CFTR in BHK cells (Homo sapiens, UniProt P13569, DEL508-508); test: CFTR trafficking assay (surface expression); assay type: cell-based, hamster; details: for F508del-CFTR trafficking towards the plasma membrane: BHK cells, 24 h, 10 μM compound; for F508del-CFTR surface expression signal (Fig5a): individual replicates
# T2 construct: expressed in transfected cells; host or cells: baby hamster kidney (BHK) cells (Carlile et al. 2007)
# T2 sequence (P13569 with tags, fused parts or gaps DEL508-508): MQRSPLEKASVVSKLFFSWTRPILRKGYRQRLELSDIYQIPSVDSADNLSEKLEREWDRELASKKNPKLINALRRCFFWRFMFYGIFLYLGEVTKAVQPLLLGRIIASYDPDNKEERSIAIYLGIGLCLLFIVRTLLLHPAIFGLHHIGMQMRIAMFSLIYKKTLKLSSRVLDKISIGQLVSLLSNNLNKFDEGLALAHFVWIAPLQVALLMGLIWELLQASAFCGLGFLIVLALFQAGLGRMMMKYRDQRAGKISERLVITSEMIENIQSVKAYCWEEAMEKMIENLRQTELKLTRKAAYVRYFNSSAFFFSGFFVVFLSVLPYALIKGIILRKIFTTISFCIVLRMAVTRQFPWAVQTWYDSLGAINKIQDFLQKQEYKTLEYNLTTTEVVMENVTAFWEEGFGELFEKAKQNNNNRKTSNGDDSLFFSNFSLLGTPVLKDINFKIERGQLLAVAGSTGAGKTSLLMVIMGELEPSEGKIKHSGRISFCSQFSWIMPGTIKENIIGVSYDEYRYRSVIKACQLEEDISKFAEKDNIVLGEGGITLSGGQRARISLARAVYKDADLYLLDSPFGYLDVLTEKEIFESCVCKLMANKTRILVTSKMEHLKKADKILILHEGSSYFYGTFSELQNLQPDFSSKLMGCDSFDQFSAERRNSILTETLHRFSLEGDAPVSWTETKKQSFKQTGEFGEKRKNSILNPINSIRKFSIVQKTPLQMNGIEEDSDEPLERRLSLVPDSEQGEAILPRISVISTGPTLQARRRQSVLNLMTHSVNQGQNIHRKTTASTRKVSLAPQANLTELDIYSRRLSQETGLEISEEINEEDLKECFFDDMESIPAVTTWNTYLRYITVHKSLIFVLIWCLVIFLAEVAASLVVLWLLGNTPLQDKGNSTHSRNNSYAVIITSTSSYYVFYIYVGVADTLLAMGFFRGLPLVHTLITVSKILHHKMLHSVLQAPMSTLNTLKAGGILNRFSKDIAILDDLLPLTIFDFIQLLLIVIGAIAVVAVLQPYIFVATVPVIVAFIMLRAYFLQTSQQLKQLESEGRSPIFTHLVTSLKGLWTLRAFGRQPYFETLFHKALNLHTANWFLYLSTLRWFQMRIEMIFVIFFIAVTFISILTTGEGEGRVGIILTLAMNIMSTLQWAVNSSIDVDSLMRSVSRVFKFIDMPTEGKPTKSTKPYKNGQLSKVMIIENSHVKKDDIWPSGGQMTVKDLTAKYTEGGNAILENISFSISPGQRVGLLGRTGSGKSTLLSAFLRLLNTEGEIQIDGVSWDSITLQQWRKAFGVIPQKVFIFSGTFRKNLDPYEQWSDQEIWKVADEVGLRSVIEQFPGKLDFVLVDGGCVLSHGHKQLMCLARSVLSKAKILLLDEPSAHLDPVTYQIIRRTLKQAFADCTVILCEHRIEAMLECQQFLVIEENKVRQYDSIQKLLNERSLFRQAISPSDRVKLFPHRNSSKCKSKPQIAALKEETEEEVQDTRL
# Method: Twelve (12) validated hit compounds from the initial screening and focused validation library were tested for their effect on F508del-CFTR trafficking. Baby hamster kidney (BHK) cells expressing 3HA-tagged F508del-CFTR were treated for 24 h with 10 μM compound. After fixation of the cells, a combination of mouse monoclonal anti-HA antibody and anti-mouse IgG conjugated with FITC was used to detect F508del-CFTR that had trafficked to the plasma membrane as described previously. […] Additionally, a fluorescence imaging plate reader (FLIPR) Membrane Potential (FMP) assay was performed. This assay measures real-time membrane potential changes associated with ion channel activation and ion transporter proteins. F508del-CFTR expressing BHK cells were incubated for 24 h with 20 μM compound before treatment with the potentiator genistein, FMP dye, and activator forskolin. The fluorescence intensity is thus a measure for the function of the CFTR protein in the plasma membrane of these cells. The F508del-CFTR corrector VX-809 (lumacaftor) and the triple combination Trikafta® were used as positive controls in this assay. […] Another cellular assay was performed with the Ussing Chamber, which detects and quantifies transport of ions across epithelial tissue. F508del-CFTR expressing cystic fibrosis epithelial (CFBE) cells were treated for 18 h with 20 μM CY007424. After forskolin and genistein stimulation, the short-circuit current of the cells was measured.
# Fig. 5 Cellular activity of macrocycles stabilizing the 14-3-3/CFTR PPI. a Surface expression of 3HA-tagged F508del-CFTR in BHK cells incubated for 24 h with 10 μM compound and treated with mouse monoclonal anti-HA antibody and anti-mouse IgG conjugated with FITC (n = 4 or n = 3 biological replicates, bars represent the mean). b, c FLIPR Membrane Potential (FMP) assay of F508del-CFTR expressing BHK cells treated for 24 h with the macrocycles (b, n = 6 biological replicates, bars represent the mean) or with CY007424 and/or VX-809 or Trikafta®, with and without CFTR inhibitor INH172 (c, n = 4 biological replicates, bars represent the mean). d Using chamber experiment of F508del-CFTR expressing CFBE cells treated for 18 h with CY007424, VX-809, or Trikafta® or in combinations. CFTR activity is assayed by measurement of short-circuit current of cells after stimulation by forskolin and the potentiator genistein (n = 3 or n = 6 biological replicates, bars represent the mean). Source data are provided as a Source Data file.
# The trafficking assay was performed as previously described by Carlile et al.[21]. In brief, 3HA-tagged F508del-CFTR expressing baby hamster kidney (BHK) cells (cells earlier described by Carlile et. al. 2007)[21] were seeded in 96-well plates (Corning half area, black-sided, clear bottom) at 15,000 cells per well. After 24 h incubation at 37 °C, the cells were treated with 10 μM of compound for 24 h (final DMSO concentration 1% v/v). The cells were fixated with 4% paraformaldehyde, washed with PBS, and then blocked with fetal bovine serum (5% in PBS). Mouse monoclonal anti-HA antibody (H9658 Sigma, 1:150 dilution in PBS) was incubated overnight, and, after three washes with PBS, the background fluorescence was measured in a plate reader (488 nm excitation, 510 nm emission). The secondary antibody anti-mouse IgG conjugated with FITC (F5262 Sigma, 1:100 dilution in PBS) was incubated for 1 h, the cells were washed three times with PBS and analyzed in the plate reader again. Background fluorescence was subtracted from the signal, after which the signal was normalized to the DMSO control and wt-CFTR expressing cells.
smiles,measurement,setting,value
CC1NC(=O)C(CCCNC(=N)N)NC(=O)C2CCCN2Cc2cccc(c2)-c2ccccc2CNC(=O)C(CCCNC(=N)N)NC1=O (centres unmarked) [CY007476],EC50,[1],147 µM
same,FP signal,[1]; compound 476.8 pM,1
same,FP signal,[1]; compound 953.7 pM,3
same,FP signal,[1]; compound 1.90735e-9 M,2
same,FP signal,[1]; compound 3.8147e-9 M,5
same,FP signal,[1]; compound 7.6294e-9 M,5
same,FP signal,[1]; compound 1.52588e-8 M,4
same,FP signal,[1]; compound 3.05176e-8 M,6
same,FP signal,[1]; compound 6.10352e-8 M,6
same,FP signal,[1]; compound 1.2207e-7 M,3
same,FP signal,[1]; compound 2.44141e-7 M,4
same,FP signal,[1]; compound 4.88281e-7 M,4
same,FP signal,[1]; compound 9.76563e-7 M,5
same,FP signal,[1]; compound 1.95313e-6 M,5
same,FP signal,[1]; compound 3.90625e-6 M,6
same,FP signal,[1]; compound 7.8125e-6 M,10
same,FP signal,[1]; compound 1.5625e-5 M,13
same,FP signal,[1]; compound 3.125e-5 M,24
same,FP signal,[1]; compound 6.25e-5 M,59
same,FP signal,[1]; compound 0.000125 M,124
same,FP signal,[1]; compound 0.00025 M,186
same,FP signal,[1]; compound 0.0005 M,230
same,FP signal,[1]; compound 0.001 M,257
same,F508del-CFTR trafficking towards the plasma membrane,[2],increase of F508del-CFTR trafficking towards the plasma membrane
same,F508del-CFTR surface expression signal (Fig5a),[2],1288.45 and 1177.16 and 1241.43 and 1259.33
CN1CC(=O)NC(CCCNC(=N)N)C(=O)NC(CCC(N)=O)C(=O)NC(CCCNC(=N)N)C(=O)NCc2ccccc2-c2cccc(c2)C1 (centres unmarked) [CY007491],EC50,[1],244 µM
same,FP signal,[1]; compound 476.8 pM,4
same,FP signal,[1]; compound 953.7 pM,5
same,FP signal,[1]; compound 1.90735e-9 M,5
same,FP signal,[1]; compound 3.8147e-9 M,6
same,FP signal,[1]; compound 7.6294e-9 M,4
same,FP signal,[1]; compound 1.52588e-8 M,6
same,FP signal,[1]; compound 3.05176e-8 M,3
same,FP signal,[1]; compound 6.10352e-8 M,5
same,FP signal,[1]; compound 1.2207e-7 M,8
same,FP signal,[1]; compound 2.44141e-7 M,6
same,FP signal,[1]; compound 4.88281e-7 M,5
same,FP signal,[1]; compound 9.76563e-7 M,5
same,FP signal,[1]; compound 1.95313e-6 M,6
same,FP signal,[1]; compound 3.90625e-6 M,7
same,FP signal,[1]; compound 7.8125e-6 M,7
same,FP signal,[1]; compound 1.5625e-5 M,9
same,FP signal,[1]; compound 3.125e-5 M,18
same,FP signal,[1]; compound 6.25e-5 M,35
same,FP signal,[1]; compound 0.000125 M,83
same,FP signal,[1]; compound 0.00025 M,142
same,FP signal,[1]; compound 0.0005 M,193
same,FP signal,[1]; compound 0.001 M,240
same,F508del-CFTR trafficking towards the plasma membrane,[2],increase of F508del-CFTR trafficking towards the plasma membrane
same,F508del-CFTR surface expression signal (Fig5a),[2],1616.06 and 1494.72 and 1508.75 and 1545.64
N=C(N)NCCCC1NC(=O)C(CCC(N)=O)NC(=O)C(CCCNC(=N)N)NC(=O)C2Cc3ccccc3CN2Cc2cccc(c2)-c2ccccc2CNC1=O (centres unmarked) [CY007493],EC50,[1],637 µM
same,FP signal,[1]; compound 324.2 pM,2
same,FP signal,[1]; compound 648.5 pM,1
same,FP signal,[1]; compound 1.297e-9 M,2
same,FP signal,[1]; compound 2.59399e-9 M,3
same,FP signal,[1]; compound 5.18799e-9 M,3
same,FP signal,[1]; compound 1.0376e-8 M,3
same,FP signal,[1]; compound 2.0752e-8 M,3
same,FP signal,[1]; compound 4.15039e-8 M,3
same,FP signal,[1]; compound 8.30078e-8 M,2
same,FP signal,[1]; compound 1.66016e-7 M,5
same,FP signal,[1]; compound 3.32031e-7 M,4
same,FP signal,[1]; compound 6.64062e-7 M,3
same,FP signal,[1]; compound 1.32813e-6 M,4
same,FP signal,[1]; compound 2.65625e-6 M,5
same,FP signal,[1]; compound 5.3125e-6 M,6
same,FP signal,[1]; compound 1.0625e-5 M,4
same,FP signal,[1]; compound 2.125e-5 M,10
same,FP signal,[1]; compound 4.25e-5 M,18
same,FP signal,[1]; compound 8.5e-5 M,37
same,FP signal,[1]; compound 0.00034 M,117
same,FP signal,[1]; compound 0.00068 M,184
same,FP signal,[1]; compound […],71
same,F508del-CFTR surface expression signal (Fig5a),[2],225.716 and 325.901 and 303.406 and 383.168
N=C(N)NCCCC1NC(=O)C(CCC(N)=O)NC(=O)C(CCCNC(=N)N)NC(=O)C2CCCN2Cc2ccccc2Sc2ccccc2CNC1=O (centres unmarked) [CY007502],EC50,[1],275 µM
same,FP signal,[1]; compound 453 pM,1
same,FP signal,[1]; compound 906 pM,2
same,FP signal,[1]; compound 1.81198e-9 M,2
same,FP signal,[1]; compound 3.62396e-9 M,3
same,FP signal,[1]; compound 7.24792e-9 M,3
same,FP signal,[1]; compound 1.44958e-8 M,1
same,FP signal,[1]; compound 2.89917e-8 M,3
same,FP signal,[1]; compound 5.79834e-8 M,4
same,FP signal,[1]; compound 1.15967e-7 M,3
same,FP signal,[1]; compound 2.31934e-7 M,4
same,FP signal,[1]; compound 4.63867e-7 M,6
same,FP signal,[1]; compound 9.27734e-7 M,3
same,FP signal,[1]; compound 1.85547e-6 M,3
same,FP signal,[1]; compound 3.71094e-6 M,4
same,FP signal,[1]; compound 7.42187e-6 M,6
same,FP signal,[1]; compound 1.48437e-5 M,6
same,FP signal,[1]; compound 2.96875e-5 M,6
same,FP signal,[1]; compound 5.9375e-5 M,26
same,FP signal,[1]; compound 0.00011875 M,67
same,FP signal,[1]; compound 0.0002375 M,127
same,FP signal,[1]; compound 0.000475 M,188
same,FP signal,[1]; compound 0.00095 M,241
same,F508del-CFTR surface expression signal (Fig5a),[2],344.243 and 408.371 and 366.875 and 405.395
